Reference: patent US20230016182A1, “EO/PO-MODIFIED 9-PHENYLACRIDINE PHOTOSENSITIZERS AND APPLICATION THEREOF” (Changzhou Tronly New Electronic Materials Co., Ltd., priority 2019, published 2023)

Test: Photosensitizer solubility test in 2-butanone and PGMEA
Format: physicochemical
Conditions: Test temperature 25° C.; for Solubility in 2-butanone: solvent 2-butanone
From the text: Among them, 9-phenylacridine (denoted as C7, produced by CHANGZHOU TRONLY NEW ELECTRONIC MATERIALS CO., LTD.) was used for comparison.

| SMILES | Solubility in 2-butanone | Solubility in PGMEA (solvent PGMEA) |
| --- | --- | --- |
| COCCOCCOCCOc1ccc(-c2c3ccccc3nc3ccccc23)cc1 [Product C1] | 21.10 g |  |
| c1ccc(-c2c3ccccc3nc3ccccc23)cc1 [Product C7, 9-phenylacridine] | 0.74 g | 0.51 g |
